# Laboratory results from paper doi:10.1101/2025.02.11.637513v1 (bioRxiv, 2025).
# Non-standard residues stand in square brackets, D forms with d. No end group written: not given here. *: point of attachment. Phe(2-Cl) = N[C@@H](Cc1ccccc1Cl)C(=O)O; Hyp = O=C(O)[C@@H]1C[C@@H](O)CN1; Tle = CC(C)(C)[C@H](N)C(=O)O; Bn = c1ccc(C*)cc1
# What was measured:
# Assay in all cases: tetrapeptide-ACC substrate cleavage kinetics
# Format in all cases: biochemical
# [1] = molecular target: T1, human caspase-1 (Homo sapiens, UniProt P29466); conditions: Ac-P4-P3-P2-Asp-ACC substrate, 0.05-500 μM, 2-15 nM enzyme, 37°C, triplicate
# T1 sequence (P29466 120-297 limits assumed): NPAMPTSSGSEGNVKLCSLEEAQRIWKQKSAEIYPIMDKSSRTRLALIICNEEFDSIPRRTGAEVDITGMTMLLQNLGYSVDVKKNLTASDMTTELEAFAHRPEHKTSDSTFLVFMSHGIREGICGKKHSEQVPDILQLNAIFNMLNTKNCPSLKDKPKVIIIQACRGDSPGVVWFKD
# T1 sequence (P29466 317-404 limits assumed): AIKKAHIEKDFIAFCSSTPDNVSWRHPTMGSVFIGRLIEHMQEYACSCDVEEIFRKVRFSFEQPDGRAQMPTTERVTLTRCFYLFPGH
# [2] = molecular target: T2, human caspase-4 (Homo sapiens, UniProt P49662); conditions: Ac-P4-P3-P2-Asp-ACC substrate, 0.05-500 μM, 35-200 nM enzyme, 37°C, triplicate
# T2 sequence (P49662 81-270 limits assumed): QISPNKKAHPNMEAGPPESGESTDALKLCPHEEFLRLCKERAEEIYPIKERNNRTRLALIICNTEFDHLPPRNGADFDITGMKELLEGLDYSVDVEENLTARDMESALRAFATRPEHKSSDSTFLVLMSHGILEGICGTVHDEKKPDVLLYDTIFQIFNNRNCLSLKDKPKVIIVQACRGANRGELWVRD
# T2 sequence (P49662 290-377 limits assumed): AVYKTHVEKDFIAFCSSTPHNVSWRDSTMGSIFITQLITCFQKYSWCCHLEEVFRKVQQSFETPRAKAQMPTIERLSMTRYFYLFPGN
# [3] = molecular target: T3, human caspase-5 (Homo sapiens, UniProt P51878); conditions: Ac-P4-P3-P2-Asp-ACC substrate, 0.05-500 μM, 20-250 nM enzyme, 37°C, triplicate
# T3 sequence (P51878 137-327 limits assumed): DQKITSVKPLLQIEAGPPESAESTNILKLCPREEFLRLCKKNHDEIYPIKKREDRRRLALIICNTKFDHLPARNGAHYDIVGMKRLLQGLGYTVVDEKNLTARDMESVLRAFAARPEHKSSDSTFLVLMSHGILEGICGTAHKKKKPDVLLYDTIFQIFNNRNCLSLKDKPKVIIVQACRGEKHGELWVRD
# T3 sequence (P51878 347-434 limits assumed): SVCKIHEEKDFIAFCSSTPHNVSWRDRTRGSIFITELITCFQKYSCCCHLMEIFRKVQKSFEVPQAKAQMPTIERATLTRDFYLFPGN
# [4] = molecular target: T4, human caspase-3 (Homo sapiens, UniProt P42574); conditions: Ac-P4-P3-P2-Asp-ACC substrate, 0.05-500 μM, 3-35 nM enzyme, 37°C, triplicate
# T4 sequence (P42574 29-175 limits assumed): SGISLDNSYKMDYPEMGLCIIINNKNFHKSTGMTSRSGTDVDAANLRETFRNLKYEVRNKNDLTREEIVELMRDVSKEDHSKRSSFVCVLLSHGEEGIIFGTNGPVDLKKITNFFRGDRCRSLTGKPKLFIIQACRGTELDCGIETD
# T4 sequence (P42574 176-277 limits assumed): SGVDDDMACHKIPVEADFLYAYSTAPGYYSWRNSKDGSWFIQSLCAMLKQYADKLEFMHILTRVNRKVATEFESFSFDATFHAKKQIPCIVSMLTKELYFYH
# [5] = molecular target: T5, human caspase-7 (Homo sapiens, UniProt P55210); conditions: Ac-P4-P3-P2-Asp-ACC substrate, 0.05-500 μM, 40-400 nM enzyme, 37°C, triplicate
# T5 sequence (P55210 24-198 limits assumed): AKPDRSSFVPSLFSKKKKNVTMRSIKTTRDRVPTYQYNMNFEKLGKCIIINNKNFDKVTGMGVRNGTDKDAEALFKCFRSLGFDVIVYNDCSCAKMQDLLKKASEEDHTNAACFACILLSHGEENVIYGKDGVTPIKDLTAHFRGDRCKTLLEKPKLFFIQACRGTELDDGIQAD
# T5 sequence (P55210 207-303 limits assumed): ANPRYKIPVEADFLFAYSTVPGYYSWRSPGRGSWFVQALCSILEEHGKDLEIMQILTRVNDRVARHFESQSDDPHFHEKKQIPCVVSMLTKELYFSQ
# [6] = molecular target: human caspase-8 (Homo sapiens, UniProt Q14790); conditions: Ac-P4-P3-P2-Asp-ACC substrate, 0.05-500 μM, 6-42 nM enzyme, 37°C, triplicate
# Chain of human caspase-8 (Q14790 217-374 limits assumed): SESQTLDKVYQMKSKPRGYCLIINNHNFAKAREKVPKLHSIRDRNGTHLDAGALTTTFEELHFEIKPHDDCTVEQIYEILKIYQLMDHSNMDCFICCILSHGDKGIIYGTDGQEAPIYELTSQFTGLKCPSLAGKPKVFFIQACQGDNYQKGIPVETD
# Chain of human caspase-8 (Q14790 385-479 limits assumed): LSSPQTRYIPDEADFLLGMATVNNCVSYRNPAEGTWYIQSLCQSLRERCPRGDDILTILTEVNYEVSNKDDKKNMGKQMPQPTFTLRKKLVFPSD
# [7] = molecular target: T6, human caspase-9 (Homo sapiens, UniProt P55211); conditions: Ac-P4-P3-P2-Asp-ACC substrate, 0.05-500 μM, 20-150 nM enzyme, 37°C, triplicate
# T6 sequence (P55211 1-315 limits assumed): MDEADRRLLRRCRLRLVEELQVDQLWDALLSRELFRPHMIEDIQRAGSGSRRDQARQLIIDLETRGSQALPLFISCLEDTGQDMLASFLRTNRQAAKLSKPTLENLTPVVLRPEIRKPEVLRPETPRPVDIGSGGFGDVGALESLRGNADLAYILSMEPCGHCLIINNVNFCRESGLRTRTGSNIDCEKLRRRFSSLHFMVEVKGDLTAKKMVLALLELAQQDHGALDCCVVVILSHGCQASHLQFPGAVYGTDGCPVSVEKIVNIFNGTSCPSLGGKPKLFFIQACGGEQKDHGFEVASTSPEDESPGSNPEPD
# T6 sequence (P55211 331-416 limits assumed): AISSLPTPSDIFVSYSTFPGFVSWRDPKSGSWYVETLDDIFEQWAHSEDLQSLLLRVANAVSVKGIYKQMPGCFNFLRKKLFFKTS
Substance,kcat/KM caspase-1 [1],kcat/KM caspase-4 [2],kcat/KM caspase-5 [3],kcat/KM caspase-3 [4],kcat/KM caspase-7 [5],kcat/KM caspase-8 [6],kcat/KM caspase-9 [7]
W[Tle]HD,271 900 M^-1s^-1,10 640 M^-1s^-1,12 930 M^-1s^-1,600 M⁻¹ s⁻¹,40 M⁻¹ s⁻¹,1 240 M^-1s^-1,10 220 M^-1s^-1
WT(Bn)HD,644 300 M^-1s^-1,6 010 M^-1s^-1,10 640 M^-1s^-1,2 760 M^-1s^-1,120 M⁻¹ s⁻¹,8 230 M^-1s^-1,11 220 M^-1s^-1
Trp-Thr-ProAsp,110 000 M^-1s^-1,1 920 M^-1s^-1,3 180 M^-1s^-1,700 M⁻¹ s⁻¹,30 M⁻¹ s⁻¹,960 M⁻¹ s⁻¹,110 M⁻¹ s⁻¹
V[Hyp](Bn)HD,< 10 M⁻¹ s⁻¹,< 10 M⁻¹ s⁻¹,< 10 M⁻¹ s⁻¹,510 M⁻¹ s⁻¹,10 M⁻¹ s⁻¹,3 260 M^-1s^-1,660 M⁻¹ s⁻¹
Phe-Leu-Thr-Asp,50 000 M^-1s^-1,450 M⁻¹ s⁻¹,1 190 M^-1s^-1,3 490 M^-1s^-1,450 M⁻¹ s⁻¹,3 050 M^-1s^-1,460 M⁻¹ s⁻¹
Val-hGlu-Thr(Bzl)-Asp,21 700 M^-1s^-1,1 840 M^-1s^-1,5 430 M^-1s^-1,163 200 M^-1s^-1,16 800 M^-1s^-1,85 540 M^-1s^-1,6 770 M^-1s^-1
Tyr-Thr-Ile-Asp,48 100 M^-1s^-1,510 M⁻¹ s⁻¹,810 M⁻¹ s⁻¹,9 750 M^-1s^-1,1 440 M^-1s^-1,3 260 M^-1s^-1,280 M⁻¹ s⁻¹
Trp-Lys-Gln-Asp,41 600 M^-1s^-1,320 M⁻¹ s⁻¹,160 M⁻¹ s⁻¹,< 10 M⁻¹ s⁻¹,< 10 M⁻¹ s⁻¹,30 M⁻¹ s⁻¹,10 M⁻¹ s⁻¹
YT(Bn)HD,201 400 M^-1s^-1,1 260 M^-1s^-1,6 920 M^-1s^-1,4 500 M^-1s^-1,270 M⁻¹ s⁻¹,4 760 M^-1s^-1,7 970 M^-1s^-1
[Tle]MHD,23 100 M^-1s^-1,2 020 M^-1s^-1,5 120 M^-1s^-1,20 740 M^-1s^-1,280 M⁻¹ s⁻¹,14 800 M^-1s^-1,8 360 M^-1s^-1
Trp-Gln-Pro-Asp,124 300 M^-1s^-1,3 470 M^-1s^-1,5 420 M^-1s^-1,1 410 M^-1s^-1,70 M⁻¹ s⁻¹,2 480 M^-1s^-1,190 M⁻¹ s⁻¹
[Tle][Phe(2-Cl)]HD,31 900 M^-1s^-1,4 030 M^-1s^-1,6 990 M^-1s^-1,26 070 M^-1s^-1,350 M⁻¹ s⁻¹,6 220 M^-1s^-1,8 070 M^-1s^-1
Phe-Glu-Ala-Asp,57 100 M^-1s^-1,870 M⁻¹ s⁻¹,6 720 M^-1s^-1,1 550 M^-1s^-1,180 M⁻¹ s⁻¹,3 890 M^-1s^-1,530 M⁻¹ s⁻¹
Glu(Ochx)-Bip-His(Bzl)-Asp,< 10 M⁻¹ s⁻¹,< 10 M⁻¹ s⁻¹,< 10 M⁻¹ s⁻¹,< 10 M⁻¹ s⁻¹,20 M⁻¹ s⁻¹,110 M⁻¹ s⁻¹,40 M⁻¹ s⁻¹
Val-Trp-His-Asp,7 700 M^-1s^-1,1 010 M^-1s^-1,60 M⁻¹ s⁻¹,9 980 M^-1s^-1,210 M⁻¹ s⁻¹,3 500 M^-1s^-1,8 880 M^-1s^-1
